Consider 14 compounds from patent US20240239794A1, “PKC-Theta Modulators” (Exscientia AI Limited, priority 2021, published 2024).

For test [1], the target named is Recombinant human PKC-theta (His-tagged 362-706) (Homo sapiens (Human), UniProt Q04759). Briefly: PKC-theta inhibition assay (HTRF KinEASE kit). Type of test: biochemical. Particulars: ATP 6.5 μM. As for the experimental part: (§1) PKC-theta and PKC-delta biochemical activities were measured using the PKC-theta HTRF KinEASEkit kit, according to manufacturer's instructions (Cisbio, catalogue number 61ST1PEJ). Briefly, the kinase buffer component of the kit was supplemented with 10 mM MgCl2, 1 mM DTT and 0.1% Tween 20. For the PKC-theta assay, STK substrate and ATP were added to provide a final assay concentration of 525 nM and 6.5 μM, respectively. For the PKC-delta assay, STK substrate and ATP were added to provide a final assay concentration of 243 nM and 5.7 μM, respectively. The streptavidin_XL665 and STK antibody-cryptate detection reagents were mixed according to the manufacturer's instructions. Test compounds were diluted in DMSO in a series of 10 semi-log step doses; 10 nL of each compound dose were dispensed in 384 well plates. Recombinant human PKC-theta (His-tagged 362-706) or PKC-delta (His-tagged 345-676) was diluted into kinase buffer to provide a final assay concentration of 10 ng/ml and added to the test compound for 30 minutes on ice. The reaction was started by addition of the substrate and ATP and incubated at 25° C. for 30 minutes or 20 minutes for the PKC-theta and PKC-delta assays, respectively. The detection reagents were added, and the plate was incubated in the dark for 2 hours. Fluorescence was measured on an Envision 2103 plate reader with optical setup for […] in the HTRF mode. The ratio of acceptor and donor emission signals was calculated for each well. Percent inhibition values were calculated from the HTRF ratios at different doses and fitted to a 4-parameter logistic curve to determine IC50 values (see Table 1).
Sequence of Recombinant human PKC-theta (His-tagged 362-706) (Q04759 362-706): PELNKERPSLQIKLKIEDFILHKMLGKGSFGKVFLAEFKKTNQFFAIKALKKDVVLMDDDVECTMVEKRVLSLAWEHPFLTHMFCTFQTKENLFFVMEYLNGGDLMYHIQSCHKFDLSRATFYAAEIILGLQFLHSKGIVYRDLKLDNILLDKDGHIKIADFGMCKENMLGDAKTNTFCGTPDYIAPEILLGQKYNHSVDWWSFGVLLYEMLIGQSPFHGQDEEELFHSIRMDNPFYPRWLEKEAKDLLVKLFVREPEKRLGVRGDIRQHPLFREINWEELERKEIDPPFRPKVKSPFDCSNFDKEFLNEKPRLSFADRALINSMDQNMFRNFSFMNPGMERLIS

Test [2] deals with IL-2 secretion by human effector memory T cells (TEM). Briefly: Effector memory T cells IL-2 release assay. Type of test: cell-based. Particulars: T-cell, human CD4+ TEM cells, CD3/CD28 bead stimulation, 24 h. As for the experimental part:
Test compound-mediated inhibition of NFκB signalling in T cells was assessed by quantification of the IL-2 secretion by human effector memory T cells (TEM) upon treatment and stimulation. Human TEM cells were isolated from buffy coats of healthy donors obtained from the French blood bank. First, peripheral blood mononuclear cells (PBMC) were purified from buffy coats diluted 1:1 with DPBS (Gibco, cat #14190-094) by Pancoll (PAN BIOTECH, cat #P04-60500) density gradient centrifugation at 400×g for 20 minutes. TEM cells were further enriched by negative immuno-magnetic cell sorting using a human CD4+ Effector Memory T Cell Isolation Kit (Miltenyi, cat #130-094-125) according to the manufacturer's instructions. Aliquots of 3×10E6 purified TEM cells were kept frozen in Cryo-SFM medium (PromoCell, cat #C-29912) in gas phase nitrogen until used. Cell purity was verified by flow cytometry analysis of 200 000 PFA-fixed cells previously labelled with monoclonal antibodies anti-CD4-PerCP-Cy5.5 (BD Pharmigen, cat #332772), anti-CD8-V500 (BD Biosciences, cat #561617), anti-CD14-Pacific Blue (Biolegend, cat #325616), anti-CD45 RA-FITC (Biolegend, cat #304106) and anti-CCR7-APC (in CD4+ Effector Memory T Cell Isolation Kit, Miltenyi, cat #130-094-125).
TEM cells were resuspended in complete RPMI medium composed of: RPMI 1640 (Gibco, cat #31870-025), 10% heat inactivated fetal bovine serum (Sigma, cat #F7524), 2 mM GlutaMAX (Gibco, cat #35050-038), 1 mM sodium pyruvate 100× (Gibco, cat #11360-039), 1% MEM non-essential amino acids solution (Gibco, cat #11140-035) and 100 U/mL penicillin, 100 µg/mL streptomycin (Sigma-Aldrich, cat #11074440001). 5,000 cells per well were plated onto flat clear bottom 384 well plates (Corning, cat #3770). 5,000 Dynabeads Human T-Activator CD3/CD28 (Gibco, cat #11132D) were added to each well for cell stimulation. Finally, 10 doses of test compound, originally prepared in DMSO by serial semi-log step dilution, were also added to cells in triplicate wells. Final DMSO concentration in wells was 0.1% in a total volume of 100 µL complete medium. Plates were incubated for 24 h at 37° C. in 5% CO2 atmosphere. After incubation, cell suspensions were centrifuged at 400×g and culture supernatants were recovered and stored at −80° C. Cell viability was assessed by flow cytometry after staining the cells with Fixable Viability Dye eFluor 780 (Invitrogen, cat #65-0865-14). IL-2 levels were determined in cell supernatants using an HTRF human IL-2 detection kit (Cisbio, cat #62HIL02PEH). IL-2 data at the different compound doses were fitted to a 4-parameter logistic curve to determine IC50 values, corresponding to the compound concentration leading to 50% reduction of the maximal IL-2 levels observed in each experiment. Viability data were analysed similarly to exclude cytotoxicity as a cause of IL-2 decrease (see Table 1).

Test [3] concerns the target Recombinant human PKC-delta (His-tagged 345-676) (Homo sapiens (Human), UniProt Q05655). The test can be described thus: PKC-delta inhibition assay (HTRF KinEASE kit), PKC-theta/PKC-delta selectivity. Type of test: biochemical. To be noted: ratio; for PKC-theta/PKC-delta selectivity: PKC-theta over PKC-delta, HTRF assays; for PKC-theta/PKC-delta selectivity (binned): binned A to G. As for the experimental part: as §1
Background: Time-resolved FRET reads energy transfer from a long-lived donor to a nearby acceptor.

Setting [4] is: binned A to H, read-out: PKC-theta HTRF pIC50 (binned) (converted).
The mark [5] stands for this setting: read-out: PKC-theta HTRF pIC50 (converted).
[6] abbreviates: binned A to G, read-out: PKC-theta IL2 pIC50 (binned) (converted).
Where [7] appears, read: read-out: PKC-theta IL2 pIC50 (converted).

Each structure is given as a SMILES string. Where two headings read alike, the source gives them in different places.

Sequence of Recombinant human PKC-delta (His-tagged 345-676) (Q05655 345-676): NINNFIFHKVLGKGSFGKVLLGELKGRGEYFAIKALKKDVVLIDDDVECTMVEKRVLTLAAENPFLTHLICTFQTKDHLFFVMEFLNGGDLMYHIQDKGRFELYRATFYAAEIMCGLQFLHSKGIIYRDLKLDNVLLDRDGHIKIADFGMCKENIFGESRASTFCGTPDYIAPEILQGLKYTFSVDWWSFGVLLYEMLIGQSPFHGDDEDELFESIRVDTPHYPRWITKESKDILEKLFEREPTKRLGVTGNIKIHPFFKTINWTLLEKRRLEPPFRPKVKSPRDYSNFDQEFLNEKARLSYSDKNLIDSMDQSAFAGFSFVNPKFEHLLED

Turning to `C[C@@]1(O)C(=O)Nc2nccc(-c3nn(C4(CC#N)CCC4)c4cc(F)ccc34)c21` (single isomer, unassigned) [Example 59], the IC50 is at most 1 nM in test [1] (setting [4]), 0.631 nM in test [1] (setting [5]), 10 to 31.6 nM in test [2] (setting [6]) and 20 nM in test [2] (setting [7]). In addition, in test [3], the PKC-theta/PKC-delta selectivity is on record as 11. The “PKC-theta/PKC-delta selectivity (binned)” value in test [3] was “D (D means a ratio of between 10 and 20)”.

For `C[C@@]1(O)C(=O)Nc2nccc(-c3nn(C4(CC#N)CCC4)c4ncccc34)c21` (single isomer, unassigned) [Example 60], the IC50 in test [1] (setting [4]) is 3.16 to 10 nM; in test [1] (setting [5]) it was 3.98 nM; in test [2] (setting [6]), 100 to 316 nM; in test [2] (setting [7]), 100 nM. Further, the PKC-theta/PKC-delta selectivity in test [3] is 8. Besides, in test [3], the “PKC-theta/PKC-delta selectivity (binned)” value is “E (E means a ratio of between 5 and 10)”.

As for `C[C@]1(O)C(=O)Nc2nccc(-c3nn(C4(CC#N)CCC4)c4cc(C(F)(F)F)ccc34)c21` (single isomer, unassigned) [Example 64], the IC50 in test [1] (setting [4]) was 1 to 3.16 nM; in test [1] (setting [5]), 2.51 nM; in test [2] (setting [6]), 31.6 to 100 nM; in test [2] (setting [7]), 79.4 nM. Also, in test [3], the PKC-theta/PKC-delta selectivity is 28. In test [3], the “PKC-theta/PKC-delta selectivity (binned)” value is “C (C means a ratio of between 20 and 30)”.

Regarding `CC[C@]1(C)C(=O)Nc2nccc(-c3nn([C@H]4CCNC4)c4ccccc34)c21` (single isomer, unassigned) [Example 65], the IC50 is 31.6 to 100 nM in test [1] (setting [4]), 50.1 nM in test [1] (setting [5]), 316 to 1000 nM in test [2] (setting [6]) and 398 nM in test [2] (setting [7]). For the same compound, in test [3], the PKC-theta/PKC-delta selectivity was 28. In test [3], the “PKC-theta/PKC-delta selectivity (binned)” value was “C (C means a ratio of between 20 and 30)”.

Regarding `CC[C@@]1(C)C(=O)Nc2nccc(-c3nn([C@H]4CCNC4)c4ccccc34)c21` (single isomer, unassigned) [Example 66], the IC50 is 3.16 to 10 nM in test [1] (setting [4]), 3.98 nM in test [1] (setting [5]), 31.6 to 100 nM in test [2] (setting [6]) and 100 nM in test [2] (setting [7]). The PKC-theta/PKC-delta selectivity in test [3] worked out at 21. Further, in test [3], the “PKC-theta/PKC-delta selectivity (binned)” value is “C (C means a ratio of between 20 and 30)”.

For the compound `CC[C@@]1(O)C(=O)Nc2nccc(-c3nn(C4(CC#N)CCC4)c4ccccc34)c21` (single isomer, unassigned) [Example 68], the IC50 was at most 1 nM in test [1] (setting [4]), 0.251 nM in test [1] (setting [5]), 10 to 31.6 nM in test [2] (setting [6]) and 10 nM in test [2] (setting [7]). Besides, the PKC-theta/PKC-delta selectivity in test [3] is reported as 12. Also, the “PKC-theta/PKC-delta selectivity (binned)” value in test [3] is “D (D means a ratio of between 10 and 20)”.

As for `CC[C@]1(O)C(=O)Nc2nccc(-c3nn(C4(CC#N)CCC4)c4ccccc34)c21` (single isomer, unassigned) [Example 69], the IC50 in test [1] (setting [4]) was 31.6 to 100 nM; in test [1] (setting [5]) it was 100 nM; in test [2] (setting [6]) it was above 1000 nM; in test [2] (setting [7]), 1260 nM. In addition, in test [3], the PKC-theta/PKC-delta selectivity came out at 9. In addition, in test [3], the “PKC-theta/PKC-delta selectivity (binned)” value was “E (E means a ratio of between 5 and 10)”.

Regarding `CO[C@]1(C)C(=O)Nc2nccc(-c3nn(CC4(F)CCNCC4)c4ccccc34)c21` (single isomer, unassigned) [Example 75], the IC50 in test [1] (setting [4]) is 1 to 3.16 nM; in test [1] (setting [5]), 2 nM; in test [2] (setting [6]) it was 31.6 to 100 nM; in test [2] (setting [7]), 50.1 nM. Besides, the PKC-theta/PKC-delta selectivity in test [3] was 19. Besides, the “PKC-theta/PKC-delta selectivity (binned)” value in test [3] is “D (D means a ratio of between 10 and 20)”.

As to `CO[C@]1(C)C(=O)Nc2nccc(-c3nn(CC4(F)CCNCC4)c4cc(F)ccc34)c21` (single isomer, unassigned) [Example 76], the IC50 is 1 to 3.16 nM in test [1] (setting [4]), 3.16 nM in test [1] (setting [5]), 31.6 to 100 nM in test [2] (setting [6]) and 100 nM in test [2] (setting [7]). Moreover, the PKC-theta/PKC-delta selectivity in test [3] was 22. In addition, in test [3], the “PKC-theta/PKC-delta selectivity (binned)” value was “C (C means a ratio of between 20 and 30)”.

Regarding `CO[C@@]1(C)C(=O)Nc2nccc(-c3nn(CC4(F)CCNCC4)c4ccccc34)c21` (single isomer, unassigned) [Example 78], the IC50 is at most 1 nM in test [1] (setting [4]), 1 nM in test [1] (setting [5]), 31.6 to 100 nM in test [2] (setting [6]) and 50.1 nM in test [2] (setting [7]). Besides, the PKC-theta/PKC-delta selectivity in test [3] turned out to be 10. The “PKC-theta/PKC-delta selectivity (binned)” value in test [3] is “D (D means a ratio of between 10 and 20)”.

For `CO[C@@]1(C)C(=O)Nc2nccc(-c3nn(CC4(F)CCNCC4)c4cc(F)ccc34)c21` (single isomer, unassigned) [Example 79], the IC50 is 1 to 3.16 nM in test [1] (setting [4]), 1.26 nM in test [1] (setting [5]), 31.6 to 100 nM in test [2] (setting [6]) and 50.1 nM in test [2] (setting [7]). For the same compound, the PKC-theta/PKC-delta selectivity in test [3] amounted to 15. Also, in test [3], the “PKC-theta/PKC-delta selectivity (binned)” value was “D (D means a ratio of between 10 and 20)”.

On to `CO[C@@]1(C)C(=O)Nc2nccc(-c3nn(C4(CC#N)CCC4)c4ccccc34)c21` (single isomer, unassigned) [Example 80], for which the IC50 in test [1] (setting [4]) was at most 1 nM; in test [1] (setting [5]), 0.794 nM; in test [2] (setting [6]), 10 to 31.6 nM; in test [2] (setting [7]) it was 20 nM. Besides, the PKC-theta/PKC-delta selectivity in test [3] came out at 9. The “PKC-theta/PKC-delta selectivity (binned)” value in test [3] was “E (E means a ratio of between 5 and 10)”.

Turning to `CO[C@]1(C)C(=O)Nc2nccc(-c3nn(C4(CC#N)CCC4)c4ccccc34)c21` (single isomer, unassigned) [Example 81], the IC50 is 31.6 to 100 nM in test [1] (setting [4]), 31.6 nM in test [1] (setting [5]), 316 to 1000 nM in test [2] (setting [6]) and 794 nM in test [2] (setting [7]). For the same compound, the PKC-theta/PKC-delta selectivity in test [3] is listed as 20. In test [3], the “PKC-theta/PKC-delta selectivity (binned)” value was “C (C means a ratio of between 20 and 30)”.

In the case of `CC[C@@]1(O)C(=O)Nc2nccc(-c3nn([C@H]4CCNC[C@H]4F)c4ccccc34)c21` (single isomer, unassigned) [Example 82], the IC50 in test [1] (setting [4]) was at most 1 nM; in test [1] (setting [5]) it was 0.794 nM; in test [2] (setting [6]), 31.6 to 100 nM; in test [2] (setting [7]), 50.1 nM. Further, the PKC-theta/PKC-delta selectivity in test [3] came out at 12. Also, the “PKC-theta/PKC-delta selectivity (binned)” value in test [3] was “D (D means a ratio of between 10 and 20)”.
